Measured values: patent publication US5719287A, “Intermediates for inhibitors of HIV protease and method of preparation thereof” (Eli Lilly and Company, priority 1995, dated 1998)
Read-outs that look alike come from different tables or passages of the source.

Biological target: T1, HIV-1 protease (Human immunodeficiency virus type 1 group M subtype B, UniProt P04585)
T1 construct: Purified HIV-1 protease was obtained as described below; made in house; host or cells: E. coli K12 L507/pHP10D (NRRL B-18560)
Test: biochemical
Conditions: for IC50: read-out: Fluorescence Assay IC50 (converted)
Experimental: N^α -Biotin-[…]Ne-FITC)-OH
The purified peptide was labeled as follows with a fluorescent marker at the C-terminal end for use in the assay. N^α -Biotin-Gly-Ser-Gln-Asn-Tyr-Pro-lle-Val-Gly-Lys-OH (1.206 g, 0.936 mmoles) was dissolved in 100 mL of 0.1M sodium borate, pH 9.5 with stirring. Then, 3 g of fluorescein isothiocyanate (7.7 mmol) was dissolved in 15 mL dimethyl sulfoxide and the solution added to the reaction in 10 equal portions over the course of a two hour period. The reaction was allowed to proceed for a further one hour after the final addition had been made. The pH of the solution was adjusted to 3 with 5N HCl. A precipitate formed which was removed from the reaction by centrifugation.
Fluorescence HIV-1 Protease Inhibitor Assay Procedure.
To each well of a round bottom, 96-well plate is added 20 μl of the Enzyme Solution followed by 10 μl of the compound to be evaluated in 20% aqueous DMSO. Purified HIV-1 protease was obtained as described below. The solution is incubated for one hour at room temperature and then 20 μl of a solution of the substrate N^α -Biotin-[…]N^e -FITC)-OH, in MES-ALB buffer (1.5 μl/ml) is added to each well. The solutions are incubated for 16 hours at room temperature and thereafter to each well is added 150 μl of MES-ALB buffer.
To each well of a 96-well Pandex plate is added 25 μl of the Avidin Coated Beads Solution. Next, 25 μl of the diluted incubation solutions, described above, are added to each well of the Pandex plate. The solutions are mixed well and the plates are loaded into a Pandex® machine, washed, evacuated and read. Sample detection was performed by excitation at 485 nm and reading the resulting epifluorescence at 535 nm.
A culture of E. coli K12 L507/pHP10D was grown to mid-log phase at 32° C. in LB media containing 12.5 μg/ml tetracycline. The cultivation temperature was quickly elevated to 40° C. to induce gene expression, and the cells were allowed to grow for 2.5 hours at this temperature before the culture was quickly chilled on ice. The cells were centrifuged and the cell pellet was resuspended in 20 ml 50 mmol MES buffer (pH 6.0) containing 1 mmol EDTA, 1 mmol DTT, 1 mmol PMSF, and 10% glycerol (Buffer A). Cells were lysed by sonication using a Fischer Model 300 Dismembrator and a microtip probe. […] Enzymatic activity was measured by HPLC using the synthetic peptide SQNYPIV as described in Margolin et al., Biochem. Biophys. Res. Commun., 167, 554-560 (1990); the production of the pl peptide (SQNY) was measured.
Active fractions were pooled, made 1.2M in ammonium sulfate, and applied to a hexyl agarose column (2.0×18 cm) equilibrated in Buffer A containing 1.2M ammonium sulfate. The sample, in 125 ml (1.85 mg/ml), was loaded at a flow rate of 1 ml/min at 4° C. […] The column was then washed isocratically in Buffer A for 120 min. Active fractions were pooled, concentrated to 10 ml using an Amicon stirred cell with a YM-10 membrane, and applied at 1 ml/min to a MonoS cation exchange column (1.0×10 cm) equilibrated in Buffer A. After washing isocratically for 30 min, protease was eluted using a linear gradient of 0-0.45M NaCl in Buffer A over 40 min followed by an isocratic wash with Buffer A containing 0.45M NaCl over 30 min. Chromatography was performed at 25° C.
Pooled active fractions were concentrated to 200 ul using an Amicon stirred cell and a YM-10 membrane, and the protease was then applied to a Superose 6 size exclusion column equilibrated in Buffer A containing 0.1M NaCl. The column was washed isocratically in this buffer at a flow rate of 0.5 ml/min.

[1] = purified HIV-1 protease, MES-ALB buffer pH 5.5, 1 h preincubation, 16 h with substrate, room temperature, IC50 values for Examples 2-70 are standardized relative to Ex 1

SMILES	IC50 [nM]	other results
CC(C)(C)NC(=O)c1ccccc1C[C@@H](O)[C@H](Cc1ccccc1)NC(=O)[C@H](CC(=O)NNc1cccnc1)NC(=O)c1ccc2ccccc2n1 [Example 50, [1S-(1R*, 4R*, 5S*)]-N-(1-(2-(N-(N-3-pyridyl)amino)amino)-2-oxoethyl)-2-oxo-3-aza-4-phenylmethyl-5-hydroxy-6-(2-(1-t-butylamino-1-oxomethyl)phenyl)hexyl)-2-quinolinyl carboxamide]		IC50 [1]: 0.228 nM
CC(C)(C)NC(=O)c1ccccc1C[C@@H](O)[C@H](CC1CCCCC1)NC(=O)[C@H](CC(N)=O)NC(=O)c1ccc2ccccc2n1 [Example 51, [1S-(1R*, 4R*. 5S*)]-N-(1-(2-amino-2-oxoethyl)-2-oxo-3-aza-4-cyclohexylmethyl-5-hydroxy-6-(2-(1-t-butylamino-1-oxomethyl)phenyl)hexyl)-2-quinolinyl carboxamide]	14.9	
CC(C)(C)NC(=O)c1ccccc1C[C@@H](O)[C@H](Cc1ccccc1)NC(=O)[C@H](CC(N)=O)NC(=O)c1ccc2cc(F)cc(F)c2n1 [Example 59, [1S-(1R*, 4R*, 5S*)]-N-(1-(2-amino-2-oxoethyl)-2-oxo-3-aza-4-phenylmethyl-5-hydroxy-6-(2-(1-t-butylamino-1-oxomethyl)phenyl)hexyl)-6,8-difluoroquinolin-2-yl carboxamide]		IC50 [1]: 11.2 nM
CC(C)(C)NC(=O)c1ccccc1CC(O)C(Cc1ccccc1)NC(=O)C(CC(N)=O)NC(=O)c1cccc2cccnc12 (stereo not drawn) [Example 61, [1S-(1R*, 4R*, 5S*)]-N-(1-(2-amino-2-oxoethyl)-2-oxo-3-aza-4-phenylmethyl-5-hydroxy-6-(2-(1-t-butylamino-1-oxomethyl)phenyl)hexyl)-8-quinolinyl carboxamide]		Fluorescence Assay IC50 [1]: 1.3 ng/mL
Cc1cc(C)c2ccc(C(=O)N[C@@H](CC(N)=O)C(=O)N[C@@H](Cc3ccccc3)[C@H](O)Cc3ccccc3C(=O)NC(C)(C)C)nc2c1 [Example 63, [1S-(1R*, 4R*, 5S*)]-N-(1-(2-amino-2-oxoethyl)-2-oxo-3-aza-4-phenylmethyl-5-hydroxy-6-(2-(1-t-butylamino-1-oxomethyl)phenyl)hexyl)-5,7-dimethylquinolin-2-yl carboxamide]	0.784	
Cc1ccc(C(=O)NC(C)(C)C)c(C[C@@H](O)[C@H](Cc2ccccc2)NC(=O)[C@H](CC(N)=O)NC(=O)c2ccc3ccccc3n2)c1 [Example 65, [1S-(1R*, 4R*, 5S*)]-N-(1-(2-amino-2-oxoethyl)-2-oxo-3-aza-4-phenylmethyl-5-hydroxy-6-(2-(1-t-butylamino-1-oxomethyl)-5-methylphenyl)hexyl)-2-quinolinyl carboxamide]	1.92	
CC(C)(C)NC(=O)c1ccccc1CC(O)C(Cc1ccccc1)NC(=O)C(CC(N)=O)NC(=O)c1cc(C(C)(C)C)c2ccccc2n1 (stereo not drawn) [Example 66, [1S-(1R*, 4R*, 5S*)]-N-(1-(3-amino-2-oxoethyl)-2-oxo-3-aza-4-phenylmethyl-5-hydroxy-6-(2-(1-t-butylamino-1-oxomethyl)phenyl)hexyl)-4-(2,2-dimethylethyl)quinolin-2-yl carboxamide]		Fluorescence Assay IC50 [1]: 1.5 ng/mL
Cc1ccc(C[C@@H](O)[C@H](Cc2ccccc2)NC(=O)[C@H](Cc2c[nH]cn2)NC(=O)c2ccc3ccccc3n2)c(C(=O)NC(C)(C)C)c1 [Example 67, [1S-(1R*, 4R*, 5S*)]-N-(1-(4-imidazolylmethyl)-2-oxo-3-aza-4-phenylmethyl-5-hydroxy-6-(2-(1-t-butylamino-1-oxomethyl)-4-methylphenyl)-4-hexyl)-2-quinolinyl carboxamide]	7.73	

Now from value to compound, other results behind:

IC50 [nM]	SMILES	other results
4.62	CC(C)(C)NC(=O)c1ccccc1C[C@@H](O)[C@H](Cc1ccccc1)NC(=O)[C@H](CC(N)=O)NC(=O)c1ccc2cccc(F)c2n1 [Example 52, [1S-(1R*, 4R*, 5S*)]-N-(1-(2-amino-2-oxoethyl)-2-oxo-3-aza-4-phenylmethyl-5-hydroxy-6-(2-(1-t-butylamino-1-oxomethyl)phenyl)hexyl)-8-fluoroquinolin-2-yl carboxamide]	
1.2	CC(C)(C)NC(=O)c1ccccc1C[C@@H](O)[C@H](Cc1ccccc1)NC(=O)[C@H](CC(N)=O)NC(=O)c1cc(Cl)c2ccccc2n1 [Example 53, [1S-(1R*, 4R*, 5S*)]-N-(1-(2-amino-2-oxoethyl)-2-oxo-3-aza-4-phenylmethyl-5-hydroxy-6-(2-(1-t-butylamino-1-oxomethyl)phenyl)hexyl)-4-chloroquinolin-2-yl carboxamide]	
78.6	CC(C)(C)NC(=O)c1ccccc1C[C@@H](O)[C@H](Cc1ccccc1)NC(=O)[C@H](CCC(N)=O)NC(=O)c1ccc2ccccc2n1 [Example 54, [1S-(1R*, 4R*, 5S*)]-N-(1-(3-amino-3-oxopropyl)-2-oxo-3-aza-4-phenylmethyl-5-hydroxy-6-(2-(1-t-butylamino-1-oxomethyl)phenyl)hexyl)-2-quinolinyl carboxamide]	
1.26	CC(C)(C)NC(=O)c1ccccc1C[C@@H](O)[C@H](Cc1ccccc1)NC(=O)[C@H](CC(N)=O)NC(=O)c1ccc2cc(Cl)ccc2n1 [Example 55, [1S-(1R*, 4R*, 5S*)]-N-(1-(2-amino-2-oxoethyl)-2-oxo-3-aza-4-phenylmethyl-5-hydroxy-6-(2-(1-t-butylamino-1-oxomethyl)phenyl)hexyl)-6-chloroquinolin-2-yl carboxamide]	
38.9	CC(C)(C)NC(=O)c1ccccc1C[C@@H](O)[C@H](Cc1ccccc1)NC(=O)[C@H](CCC(N)=O)NC(=O)c1ccc2ccccc2c1 [Example 56, [1S-(1R*, 4R*, 5S*)]-N-(1-(3-amino-3-oxopropyl) -2-oxo-3-aza-4-phenylmethyl-5-hydroxy-6-(2-(1-t-butylamino-1-oxomethyl)phenyl)hexyl)-2-naphthyl carboxamide]	
16.5	CC(C)(C)NC(=O)c1ccccc1C[C@@H](O)[C@H](Cc1ccccc1)NC(=O)[C@H](CC(N)=O)NC(=O)NCc1ccccc1 [Example 57, [2R-(2R*, 3S*, 6S*)]-N-t-butyl-2-(2-hydroxy-3-phenylmethyl-4-aza-5-oxo-6-(2-amino-2-oxoethyl)-7-aza-8-oxo-8-(N-benzylamino)octyl)benzamide]	
2.82	CC(C)(C)NC(=O)c1ccccc1C[C@@H](O)[C@H](Cc1ccccc1)NC(=O)[C@H](CC(N)=O)NC(=O)NCc1cccc2ccccc12 [Example 58, [2R-(2R*, 3S*, 6S*)]-N-t-butyl-2-(2-hydroxy-3-phenylmethyl-4-aza-5-oxo-6-(2-amino-2-oxoethyl)-7-aza-8-oxo-8-(N-naphth-1-ylmethylamino)octyl)benzamide]	
5.9	CC(C)(C)NC(=O)c1ccccc1C[C@@H](O)[C@H](Cc1ccccc1)NC(=O)[C@H](CC(N)=O)NC(=O)c1ccc2cccc(Cl)c2n1 [Example 62, [1S-(1R*, 4R*, 5S*)]-N-(1-(2-amino-2-oxoethyl)-2-oxo-3-aza-4-phenylmethyl-5-hydroxy-6-(2-(1-t-butylamino-1-oxomethyl)phenyl)hexyl)-8-chloroquinolin-2-yl carboxamide]	
0.782	COc1cc(C(=O)N[C@@H](CC(N)=O)C(=O)N[C@@H](Cc2ccccc2)[C@H](O)Cc2ccccc2C(=O)NC(C)(C)C)nc2ccccc12 [Example 64, [1S-(1R*, 4R*, 5S*) ]-N-(1-(2-amino-2-oxoethyl)-2-oxo-3-aza-4-phenylmethyl-5-hydroxy-6-(2-(1-t-butylamino-1-oxomethyl)phenyl)hexyl)-4-methoxyquinolin-2-yl carboxamide]	
